# Results published in PubChem BioAssay AID1963980 (Molecular Pharmacology Branch, DTP, NCI, 2024).
# Test system: 475296-252-R-J1-PDC spheroid viability
# Assay: Anticancer human tumor 475296-252-R-J1-PDC patient-derived rectal carcinoma cell line growth inhibition [PI3K]
# Conditions: spheroids with HUVEC and MSC; for IC50: curve of first compound; for viability, T/C: stronger effect = lower value
# In short: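 Targeted small molecules plus PI3K inhibitors, half-log dose series from Cmax (default top 10 microM), were applied to heterotypic spheroids of cancer cells with HUVEC and MSCs. Viability indicated growth inhibition.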
# [1] = second compound 0.0316 µM, first compound 0.000316 µM
# [2] = second compound 0.0316 µM, first compound 0.001 µM
# [3] = second compound 0.0316 µM, first compound 0.00316 µM
# [4] = second compound 0.0316 µM, first compound 0.01 µM
# [5] = second compound 0.0316 µM, first compound 0.0316 µM
# [6] = second compound 0.0316 µM, first compound 0.1 µM
# [7] = second compound 0.1 µM, first compound 0.000316 µM
# [8] = second compound 0.1 µM, first compound 0.001 µM
# [9] = second compound 0.1 µM, first compound 0.00316 µM
# [10] = second compound 0.1 µM, first compound 0.01 µM
# [11] = second compound 0.1 µM, first compound 0.0316 µM
# [12] = second compound 0.1 µM, first compound 0.1 µM
# [13] = second compound 0.316 µM, first compound 0.000316 µM
# [14] = second compound 0.316 µM, first compound 0.001 µM
# [15] = second compound 0.316 µM, first compound 0.00316 µM
# [16] = second compound 0.316 µM, first compound 0.01 µM
# [17] = second compound 0.316 µM, first compound 0.0316 µM
# [18] = second compound 0.316 µM, first compound 0.1 µM
# [19] = second compound 1 µM, first compound 0.000316 µM
# [20] = second compound 1 µM, first compound 0.001 µM
# [21] = second compound 1 µM, first compound 0.00316 µM
# [22] = second compound 1 µM, first compound 0.01 µM
# [23] = second compound 1 µM, first compound 0.0316 µM
# [24] = second compound 1 µM, first compound 0.1 µM
# [25] = second compound 3.16 µM, first compound 0.000316 µM
# [26] = second compound 3.16 µM, first compound 0.001 µM
# [27] = second compound 3.16 µM, first compound 0.00316 µM
# [28] = second compound 3.16 µM, first compound 0.01 µM
# [29] = second compound 3.16 µM, first compound 0.0316 µM
# [30] = second compound 3.16 µM, first compound 0.1 µM
# [31] = second compound 10 µM, first compound 0.000316 µM
# [32] = second compound 10 µM, first compound 0.001 µM
# [33] = second compound 10 µM, first compound 0.00316 µM
# [34] = second compound 10 µM, first compound 0.01 µM
# [35] = second compound 10 µM, first compound 0.0316 µM
# [36] = second compound 10 µM, first compound 0.1 µM
# [37] = second compound 0.0316 µM, first compound 0.316 µM
# [38] = second compound 0.0316 µM, first compound 1 µM
# [39] = second compound 0.0316 µM, first compound 3.16 µM
# [40] = second compound 0.0316 µM, first compound 10 µM
# [41] = second compound 0.1 µM, first compound 0.316 µM
# [42] = second compound 0.1 µM, first compound 1 µM
# [43] = second compound 0.1 µM, first compound 3.16 µM
# [44] = second compound 0.1 µM, first compound 10 µM
# [45] = second compound 0.316 µM, first compound 0.316 µM
# [46] = second compound 0.316 µM, first compound 1 µM
# [47] = second compound 0.316 µM, first compound 3.16 µM
# [48] = second compound 0.316 µM, first compound 10 µM
# [49] = second compound 1 µM, first compound 0.316 µM
# [50] = second compound 1 µM, first compound 1 µM
# [51] = second compound 1 µM, first compound 3.16 µM
# [52] = second compound 1 µM, first compound 10 µM
# [53] = second compound 3.16 µM, first compound 0.316 µM
# [54] = second compound 3.16 µM, first compound 1 µM
# [55] = second compound 3.16 µM, first compound 3.16 µM
# [56] = second compound 3.16 µM, first compound 10 µM
# [57] = second compound 10 µM, first compound 0.316 µM
# [58] = second compound 10 µM, first compound 1 µM
# [59] = second compound 10 µM, first compound 3.16 µM
# [60] = second compound 10 µM, first compound 10 µM
# 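Further: spheroids exposed to agents for seven days before readout.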
compound,measurement,setting,value
CC(=O)c1c(C)c2cnc(Nc3ccc(N4CCNCC4)cn3)nc2n(C2CCCC2)c1=O + CC(Nc1ncnc2nc[nH]c12)c1cc2cccc(Cl)c2c(=O)n1-c1ccccc1,IC50,second compound 0.0316 µM,> 0.1 µM
same,IC50,second compound 0.1 µM,> 0.1 µM
same,IC50,second compound 0.316 µM,> 0.1 µM
same,IC50,second compound 1 µM,> 0.1 µM
same,IC50,second compound 3.16 µM,> 0.1 µM
same,IC50,second compound 10 µM,> 0.1 µM
same,"viability, T/C",[1],91.8%
same,"viability, T/C",[2],91.4%
same,"viability, T/C",[3],87.8%
same,"viability, T/C",[4],94.2%
same,"viability, T/C",[5],96%
same,"viability, T/C",[6],102%
same,"viability, T/C",[7],97.4%
same,"viability, T/C",[8],106%
same,"viability, T/C",[9],94.4%
same,"viability, T/C",[10],85.8%
same,"viability, T/C",[11],105%
same,"viability, T/C",[12],112%
same,"viability, T/C",[13],105%
same,"viability, T/C",[14],89.7%
same,"viability, T/C",[15],104%
same,"viability, T/C",[16],97.2%
same,"viability, T/C",[17],104%
same,"viability, T/C",[18],101%
same,"viability, T/C",[19],99.9%
same,"viability, T/C",[20],109%
same,"viability, T/C",[21],84.1%
same,"viability, T/C",[22],95.3%
same,"viability, T/C",[23],107%
same,"viability, T/C",[24],112%
same,"viability, T/C",[25],99.2%
same,"viability, T/C",[26],86.5%
same,"viability, T/C",[27],100%
same,"viability, T/C",[28],97.7%
same,"viability, T/C",[29],105%
same,"viability, T/C",[30],104%
same,"viability, T/C",[31],91.4%
same,"viability, T/C",[32],94.8%
same,"viability, T/C",[33],89.9%
same,"viability, T/C",[34],97.4%
same,"viability, T/C",[35],99.8%
same,"viability, T/C",[36],86.6%
CC(C)n1nc(-c2ccc3oc(N)nc3c2)c2c(N)ncnc21 + CC(Nc1ncnc2nc[nH]c12)c1cc2cccc(Cl)c2c(=O)n1-c1ccccc1,IC50,second compound 0.0316 µM,> 0.1 µM
same,IC50,second compound 0.1 µM,> 0.1 µM
same,IC50,second compound 0.316 µM,> 0.1 µM
same,IC50,second compound 1 µM,> 0.1 µM
same,IC50,second compound 3.16 µM,> 0.1 µM
same,IC50,second compound 10 µM,> 0.1 µM
same,"viability, T/C",[1],87.4%
same,"viability, T/C",[2],101%
same,"viability, T/C",[3],96%
same,"viability, T/C",[4],76.7%
same,"viability, T/C",[5],66.4%
same,"viability, T/C",[6],59.6%
same,"viability, T/C",[7],97.8%
same,"viability, T/C",[8],88.2%
same,"viability, T/C",[9],78%
same,"viability, T/C",[10],72.9%
same,"viability, T/C",[11],77.4%
same,"viability, T/C",[12],62.3%
same,"viability, T/C",[13],101%
same,"viability, T/C",[14],110%
same,"viability, T/C",[15],105%
same,"viability, T/C",[16],92.7%
same,"viability, T/C",[17],65.9%
same,"viability, T/C",[18],56.4%
same,"viability, T/C",[19],111%
same,"viability, T/C",[20],97.8%
same,"viability, T/C",[21],84.9%
same,"viability, T/C",[22],88.5%
same,"viability, T/C",[23],63%
same,"viability, T/C",[24],59.2%
same,"viability, T/C",[25],87.8%
same,"viability, T/C",[26],101%
same,"viability, T/C",[27],94.6%
same,"viability, T/C",[28],75.2%
same,"viability, T/C",[29],66.8%
same,"viability, T/C",[30],61.2%
same,"viability, T/C",[31],91.3%
same,"viability, T/C",[32],92%
same,"viability, T/C",[33],88.9%
same,"viability, T/C",[34],80.3%
same,"viability, T/C",[35],68.9%
same,"viability, T/C",[36],63.6%
CC1(C)CCC(CN2CCN(c3ccc(C(=O)NS(=O)(=O)c4ccc(NCC5CCOCC5)c([N+](=O)[O-])c4)c(Oc4cnc5[nH]ccc5c4)c3)CC2)=C(c2ccc(Cl)cc2)C1 + CC(Nc1ncnc2nc[nH]c12)c1cc2cccc(Cl)c2c(=O)n1-c1ccccc1,IC50,second compound 0.0316 µM,> 10 µM
same,IC50,second compound 0.1 µM,> 10 µM
same,IC50,second compound 0.316 µM,> 10 µM
same,IC50,second compound 1 µM,> 10 µM
same,IC50,second compound 3.16 µM,> 10 µM
same,IC50,second compound 10 µM,> 10 µM
same,"viability, T/C",[5],102%
same,"viability, T/C",[6],99.1%
same,"viability, T/C",[37],91.2%
same,"viability, T/C",[38],104%
same,"viability, T/C",[39],107%
same,"viability, T/C",[40],84.2%
same,"viability, T/C",[11],107%
same,"viability, T/C",[12],93.8%
same,"viability, T/C",[41],98.8%
same,"viability, T/C",[42],99.7%
same,"viability, T/C",[43],106%
same,"viability, T/C",[44],99%
same,"viability, T/C",[17],120%
same,"viability, T/C",[18],95.4%
same,"viability, T/C",[45],97.9%
same,"viability, T/C",[46],95%
same,"viability, T/C",[47],86.4%
same,"viability, T/C",[48],94.3%
same,"viability, T/C",[23],86.6%
same,"viability, T/C",[24],104%
same,"viability, T/C",[49],98.9%
same,"viability, T/C",[50],101%
same,"viability, T/C",[51],91.8%
same,"viability, T/C",[52],91.7%
same,"viability, T/C",[29],93.2%
same,"viability, T/C",[30],99.4%
same,"viability, T/C",[53],95.1%
same,"viability, T/C",[54],87.6%
same,"viability, T/C",[55],96.9%
same,"viability, T/C",[56],95.6%
same,"viability, T/C",[35],78.5%
same,"viability, T/C",[36],91.7%
same,"viability, T/C",[57],92%
same,"viability, T/C",[58],88.9%
same,"viability, T/C",[59],90.6%
same,"viability, T/C",[60],81.3%
CCCS(=O)(=O)Nc1ccc(F)c(C(=O)c2c[nH]c3ncc(-c4ccc(Cl)cc4)cc23)c1F + CC(Nc1ncnc2nc[nH]c12)c1cc2cccc(Cl)c2c(=O)n1-c1ccccc1,IC50,second compound 0.0316 µM,> 10 µM
same,IC50,second compound 0.1 µM,> 10 µM
same,IC50,second compound 0.316 µM,> 10 µM
same,IC50,second compound 1 µM,> 10 µM
same,IC50,second compound 3.16 µM,> 10 µM
same,IC50,second compound 10 µM,> 10 µM
same,"viability, T/C",[5],96.5%
same,"viability, T/C",[6],112%
same,"viability, T/C",[37],103%
same,"viability, T/C",[38],94.8%
same,"viability, T/C",[39],85.1%
same,"viability, T/C",[40],110%
same,"viability, T/C",[11],110%
same,"viability, T/C",[12],110%
same,"viability, T/C",[41],97.3%
same,"viability, T/C",[42],90.6%
same,"viability, T/C",[43],107%
same,"viability, T/C",[44],100%
same,"viability, T/C",[17],94.6%
same,"viability, T/C",[18],88.6%
same,"viability, T/C",[45],99.4%
same,"viability, T/C",[46],101%
same,"viability, T/C",[47],90.9%
same,"viability, T/C",[48],105%
same,"viability, T/C",[23],89.5%
same,"viability, T/C",[24],104%
same,"viability, T/C",[49],96.2%
same,"viability, T/C",[50],90.6%
same,"viability, T/C",[51],96.7%
same,"viability, T/C",[52],96.6%
same,"viability, T/C",[29],97%
same,"viability, T/C",[30],104%
same,"viability, T/C",[53],90%
same,"viability, T/C",[54],100%
same,"viability, T/C",[55],87.6%
same,"viability, T/C",[56],87.4%
same,"viability, T/C",[35],101%
same,"viability, T/C",[36],80.1%
same,"viability, T/C",[57],79.8%
same,"viability, T/C",[58],97%
same,"viability, T/C",[59],90.3%
same,"viability, T/C",[60],92.3%
